According to patent US20120157464A1, “USE OF AZABICYCLOALKYL DERIVATIVES OR PYRROLIDINE-2-ONE DERIVATIVES FOR THE TREATMENT OR PREVENTION OF ATAXIA” (NOVARTIS AG, priority 2009, published 2012):

Tests used:
[1] = molecular target: T1, human neuronal nAChR α4β2 (Homo sapiens, UniProt P17787+P43681); experiment: similar functional assay in a human epithelial cell line stably expressing the human α4β2 subtype; type: cell-based
T1 construct: expressed in transfected cells
Method: (§1) Assay described in: D Feuerbach et al, Neuropharmacology (2005), 48, 215-227. To assess the activity of the compound of the invention on the human neuronal nAChR α4β2, a similar functional assay is carried out using a human epithelial cell line stably expressing the human α4β2 subtype (Michelmore et al., Naunyn-Schmiedeberg's Arch. Pharmacol. (2002) 366, 235),

[2] = molecular target: T2, human α7-nAChR (Homo sapiens, UniProt P36544); experiment: functional calcium (FLIPR) assay in GH3 cells recombinantly expressing human α7-nAChR; type: cell-based; details: for EC50: GH3 cells expressing human α7-nAChR, calcium FLIPR, read-out: α7-nAChR activity Potency EC50
T2 construct: expressed in transfected cells; host or cells: GH3 cells
Method: Assay. To assess a7-nAChR activity, a functional assay was employed using GH3 cells that recombinantly expressed human α7-nAChR, 5×10^4 cells per well were seeded 72 h prior to the experiment on black 96-well plates (Costar) and incubated at 37° C. in a humidified atmosphere (5% CO2/95% air). On the day of the experiment, medium was removed by flicking the plates and replaced with 100 μl growth medium containing […] Fluo-4, (Molecular Probes) in the presence of 2.5 mM probenecid (Sigma). The cells were incubated at 37° C. in a humidified atmosphere (5% CO2/95% air) for 1 h. Plates were flicked to remove excess of Fluo-4, washed twice with Hepes-buffered salt solution (in mM: NaCl 130, KCl 5.4 CaCl2 2, MgSO4 0.8, NaH2PO4 0.9, glucose 25, Hepes 20, pH 7.4; HBS) and refilled with 100 μl of HBS containing antagonist when appropriate. The incubation in the presence of the antagonist lasted 3-5 minutes. Plates were placed in the cell plate stage of a FLIPR device (fluorescent imaging plate reader, Molecular Devices, Sunnyvale, Calif., USA).
After recording of the baseline (laser: excitation 488 nm at 1 W, CCD camera opening of 0.4 seconds) the agonists (50 μl) were added to the cell plate using the FLIPR 96-tip pipettor while simultaneously recording the fluorescence, Calcium kinetic data were normalized to the maximal fitted response induced by epibatidine, which is a full agonist at α7-nAChR, Four parameter Hill equations were fitted to the concentration-response. Values of Emax (maximal effect in % compared to the epibatidine response) and EC50 (concentration producing half the maximal effect in μM) were derived from this fit.
as §1

[3] = Oral bioavailability and brain penetration in mice; type: in vivo; details: 30 μmol/kg p.o.; for concentration at 0.25 h / concentration at 0.5 h / concentration at 1 h / concentration at 2 h / concentration at 4 h / concentration at 8 h: plasma
Method: Assay: Compounds were orally (30 μmol/kg) administered. Male mice (30-35 g, OF1/ICstrain) were sacrificed at indicated time points after oral administration. Trunk-blood was collected in EDTA-containing tubes and the brain was removed and immediately frozen on dry ice. To 100 μl plasma 10 μl internal standard (1.0 μmol of a compound with solubility and ionization properties similar to test compounds) was added and extracted three times with 500 μl dichloromethane. The combined extracts were then dried under a stream of nitrogen and re-dissolved in 100 μl acetonitrile/water (70% acetonitrile). Brains were weighed and homogenized in water (1:5 w/v). Two 100 μl aliquots of each homogenate 4-10 μl of internal standard (same standard as used for the plasma samples) were extracted three times with 500 μl dichlorornethane and further processed as the plasma samples. Samples were separated on Beckmann high-performance liquid chromatography equipment system with an autosampler (Gilson 233XL).
The limit of detection (LOD), defined as the lowest concentration of the extracted standard sample with a signal to noise ratio of ˜3.

[4] = system: mice; experiment: Social Recognition Test in mice; type: in vivo; details: oral, familiar partner at 24 h vs time 0
Method: Assay: Social interactions between two experimental animals are influenced by their degree of familiarity: the better they know each other, the less time they spend on mutual scrutiny at each meeting. […] Memory enhancing agents (i.e. oxiracetam) facilitate learning to the extent that the previously met (familiar) partner is still remembered after 24 h, whereas in vehicle treated control animals the memory usually fades after less than 1 hour (Thor and Holloway, 1982) or after 2-3 hours.
Baseline-test: Pairs consisting of one adult and one young mouse were assigned at random to the experimental and control groups. In each pair only the adult mouse was orally treated 1 hour before the trial with either vehicle or the test compound. The duration of active contacts of the adult mouse with the young mouse was manually recorded over a period of 3 min, including the following behavioural, approach-related items: sniffing, nosing, grooming, licking, pawing and playing, anogenital exploration and orientation toward the young mouse; orientation, thereby, was defined as tip of nose of the adult mouse less than approximately 1 cm distant from the young mouse's body. […]

[5] = system: FRDA; details: cited from earlier work
[6] = system: patients with FRDA; details: two patients with FRDA, varenicline p.o. 0.5 mg/kg per day; cited from earlier work
[7] = clinical use in humans; cited from earlier work
[8] = system: patients with SCA3/SCA14; details: two patients with SCA3/SCA14, varenicline p.o. 0.5 mg/kg per day; cited from earlier work
[9] = male, OF1/IC, mouse, brain, po, 30 umol/kg, 0.25 hour, read-out: Ratio Brain/plasma
[10] = male, OF1/IC, mouse, brain, po, 30 umol/kg, 0.5 hour, read-out: Ratio Brain/plasma
[11] = male, OF1/IC, mouse, brain, po, 30 umol/kg, 1 hour, read-out: Ratio Brain/plasma
[12] = male, OF1/IC, mouse, brain, po, 30 umol/kg, 2 hour, read-out: Ratio Brain/plasma
[13] = male, OF1/IC, mouse, brain, po, 30 umol/kg, 4 hour, read-out: Ratio Brain/plasma
[14] = male, OF1/IC, mouse, brain, po, 30 umol/kg, 8 hour, read-out: Ratio Brain/plasma
[15] = male, OF1/IC, mouse, po, 0.25 hour
[16] = male, OF1/IC, mouse, po, 0.5 hour
[17] = male, OF1/IC, mouse, po, 1 hour
[18] = male, OF1/IC, mouse, po, 2 hour
[19] = male, OF1/IC, mouse, po, 4 hour
[20] = male, OF1/IC, mouse, po, 8 hour

T2 sequence (P36544 23-502): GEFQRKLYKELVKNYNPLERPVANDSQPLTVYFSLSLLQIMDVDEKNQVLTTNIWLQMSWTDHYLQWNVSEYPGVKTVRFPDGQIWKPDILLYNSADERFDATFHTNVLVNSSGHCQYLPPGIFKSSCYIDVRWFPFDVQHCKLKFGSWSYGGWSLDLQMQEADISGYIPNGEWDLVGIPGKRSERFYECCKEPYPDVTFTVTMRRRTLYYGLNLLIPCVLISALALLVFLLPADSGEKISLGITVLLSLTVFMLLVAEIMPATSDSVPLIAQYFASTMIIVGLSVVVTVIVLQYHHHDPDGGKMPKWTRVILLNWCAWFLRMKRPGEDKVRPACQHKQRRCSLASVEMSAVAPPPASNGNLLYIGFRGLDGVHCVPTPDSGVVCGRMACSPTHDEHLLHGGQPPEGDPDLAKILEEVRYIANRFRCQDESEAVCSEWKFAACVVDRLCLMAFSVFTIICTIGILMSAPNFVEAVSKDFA
T1 sequence (P43681 29-627 limits assumed): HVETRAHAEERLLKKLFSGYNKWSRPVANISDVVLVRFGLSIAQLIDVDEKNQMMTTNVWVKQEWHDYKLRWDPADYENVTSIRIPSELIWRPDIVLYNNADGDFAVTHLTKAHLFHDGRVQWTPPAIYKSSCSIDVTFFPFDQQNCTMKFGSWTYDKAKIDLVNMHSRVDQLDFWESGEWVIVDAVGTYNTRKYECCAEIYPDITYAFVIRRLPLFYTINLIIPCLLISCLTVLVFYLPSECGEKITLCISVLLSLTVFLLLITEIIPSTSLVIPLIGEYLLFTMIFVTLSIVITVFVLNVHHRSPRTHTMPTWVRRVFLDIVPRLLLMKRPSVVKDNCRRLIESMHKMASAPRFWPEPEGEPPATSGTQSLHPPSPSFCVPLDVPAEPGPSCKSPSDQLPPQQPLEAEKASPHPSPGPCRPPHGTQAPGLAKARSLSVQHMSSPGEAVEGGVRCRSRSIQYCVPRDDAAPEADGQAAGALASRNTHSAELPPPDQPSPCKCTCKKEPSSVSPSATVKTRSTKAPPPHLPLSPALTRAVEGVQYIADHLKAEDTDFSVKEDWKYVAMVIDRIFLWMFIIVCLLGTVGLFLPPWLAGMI
T1 sequence (P17787 26-502): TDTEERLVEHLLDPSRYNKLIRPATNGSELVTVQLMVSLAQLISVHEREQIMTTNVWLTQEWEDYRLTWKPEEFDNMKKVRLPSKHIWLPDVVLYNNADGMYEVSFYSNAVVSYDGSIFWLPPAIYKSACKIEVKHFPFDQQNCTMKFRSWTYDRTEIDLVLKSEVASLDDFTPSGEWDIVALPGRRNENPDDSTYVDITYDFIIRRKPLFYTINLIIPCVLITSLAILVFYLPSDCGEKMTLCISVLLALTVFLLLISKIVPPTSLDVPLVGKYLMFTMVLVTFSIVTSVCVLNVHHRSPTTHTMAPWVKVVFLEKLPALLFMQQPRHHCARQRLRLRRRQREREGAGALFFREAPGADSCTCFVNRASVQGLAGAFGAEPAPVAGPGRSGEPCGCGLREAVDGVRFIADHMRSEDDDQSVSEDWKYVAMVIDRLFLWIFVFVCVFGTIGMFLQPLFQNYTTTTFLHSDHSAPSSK

Compound	EC50 [1] [µM]	IC50 [1] [µM]	EC50 [2] [µM]	Brain ([3]; 0.25 hour)	Brain ([3]; 0.5 hour)	Brain ([3]; 1 hour)	Brain ([3]; 2 hour)	Brain ([3]; 4 hour)	Brain ([3]; 8 hour)	Brain ([3]; 24 hour)	Kp at 0.25 h [3, 9]	Kp at 0.5 h [3, 10]	Kp at 1 h [3, 11]	Kp at 2 h [3, 12]	Kp at 4 h [3, 13]	Kp at 8 h [3, 14]	concentration at 0.25 h [3, 15] [nM]	concentration at 0.5 h [3, 16] [nM]	concentration at 1 h [3, 17] [nM]	concentration at 2 h [3, 18] [nM]	also measured
C[C@H]1[C@H](Oc2ccc(-c3ccc4[nH]ccc4c3)nn2)C2CCN1CC2 [Compound B-13, (2S,3R)-3-[6-(1H-indol-5-yl)-pyridazin-3-yloxy]-2-methyl-1-aza-bicyclo[2.2.2]octane]	> 100	4.22	0.013	1884 ± 291 pmoles/g ± SD	2960 ± 706 pmoles/g ± SD	2940 ± 335 pmoles/g ± SD	1260 ± 172 pmoles/g ± SD	379 ± 134 pmoles/g ± SD	93 ± 30 pmoles/g ± SD	13 ± 4 pmoles/g ± SD	0.86	1.31	1.89	1.07	0.88	1.17	2200 ± 397	2260 ± 419	1550 ± 523	1170 ± 252	concentration at 4 h [3, 19]: 429 ± 167 nM; concentration at 8 h [3, 20]: 80 ± 23 nM; Reduction in time scrutinizing in % ± SEM at 24 h ([4]; dose 0.3 mg/kg): 37 ± 7 % ± SEM
COC1=C(OC)C(=O)C(CCCCCCCCCCO)=C(C)C1=O [idebenone]																					effects in clinical trials for FRDA [5]: showed effects in clinical trials
C[C@H](OC(=O)N[C@@H]1CN2CCC1CC2)c1ccccc1F [Compound A-1, (S)-(1-aza-bicyclo[2.2.2]oct-3-yl)-carbamic acid S-1-(2-fluoro-phenyl)ethylester]		23.4			706.3 ± 153.4 pmoles/g ± SD	573.7 ± 109.3 pmoles/g ± SD	191.9 ± 34.9 pmoles/g ± SD	104.6 ± 39.6 pmoles/g ± SD		9.1 ± 2.7 pmoles/g ± SD		1.1	0.8	1.1	1.2						α7-nAChR activity Efficacy compared to epibatidine (100%) ([2]; Emax, maximal effect in % compared to the epibatidine response): 83%; Plasma ([3]; 0.5 hour): 634.9 ± 261.3 pmoles/ml ± SD; Plasma ([3]; 1 hour): 684.7 ± 339.6 pmoles/ml ± SD; Plasma ([3]; 2 hour): 168.2 ± 91.3 pmoles/ml ± SD; Plasma ([3]; 4 hour): 85.0 ± 54.3 pmoles/ml ± SD; Brain ([3]; 6 hour): 40.5 ± 12.1 pmoles/g ± SD; Plasma ([3]; 6 hour): 29.5 ± 13.8 pmoles/ml ± SD; Plasma ([3]; 24 hour): 3.8 ± 0.6 pmoles/ml ± SD; Kp at 6 h ([3]; male, OF1/IC, mouse, brain, po, 30 umol/kg, 6 hour, read-out: Ratio Brain/plasma): 1.4; Kp at 24 h ([3]; male, OF1/IC, mouse, brain, po, 30 umol/kg, 24 hour, read-out: Ratio Brain/plasma): 2.4; Reduction in time scrutinizing in % ± SEM at 24 h ([4]; dose 3 mg/kg): 52 ± 4 % ± SEM
c1cc2cc(-c3cnc(O[C@H]4CCN5CCC[C@@H]4C5)nc3)ccc2[nH]1 [Compound C-1, (4S,5R)-4-[5-(1H-indol-5-yl)-pyrimidin-2-yloxy]-1-aza-bicyclo[3.3.1]nonane]	> 100	9.33	0.024	620 ± 221 pmoles/g ± SD	1405 ± 539 pmoles/g ± SD	1458 ± 189 pmoles/g ± SD	1478 ± 259 pmoles/g ± SD	842 ± 187 pmoles/g ± SD	362 ± 62 pmoles/g ± SD		0.39	0.41	1.17	1.69	1.11	1.51	1600 ± 758	3410 ± 956	1240 ± 583	875 ± 261	concentration at 4 h [3, 19]: 762 ± 159 nM; concentration at 8 h [3, 20]: 239 ± 27 nM
Cc1c(O)c(=O)ccn1C [deferiprone]																					effects in clinical trials for FRDA [5]: showed effects in clinical trials
c1cnc2cc3c(cc2n1)C1CNCC3C1 [varenicline, 7,8,9,10-tetrahydro-6,10-methano-6H-pyrazino-(2,3-h)(3)-benzazepine]																					ataxia improvements in patients [6]: showed improvements; adverse effects reported during clinical use [7]: nausea, sleep disturbance, constipation, vivid dreams, flatulence and vomiting; ataxia improvements in patients [8]: showed improvements
